Assay results published in patent publication US6037490A, “Boron-containing amino carboxylic acid compounds and uses thereof” (priority 1997, dated 2000).
“Also recorded” adds a separate entry of the source. Like-named read-outs stand apart in the source and are kept apart here.

Experiments:
[1] = mice receiving the compound; cited from earlier work
[2] = system: tumor cells; conditions: in vivo; cited from earlier work
[3] = system: A549 lung cancer cells; experiment: Cellular toxicity, colony survival assay in A549 lung cancer cells; conditions: for A549 cell survival (Table 1) / level above which all cell growth is suppressed: seven day experiment
Description: (§1) The cells were plated for undisturbed colony growth for seven to ten days and a survival assay was performed. Colonies were washed with isotonic saline and absolute methanol before staining with Giemsa and standard colony counting.

[4] = system: A549 lung cancer cells; experiment: Neutron irradiation (252Cf) cell survival, kill constant; assay type: cell-based; conditions: regression of semi-log cell survival plots, 252Cf neutrons
Description: The irradiation was performed by known techniques. The ^252 Cf isotope is a useful source of neutrons for BNCT (Hatanaka 1991, A). The neutron spectrum and beam characteristics are similar to those of reactor fission sources with a most probable energy of about 1 MeV. A 50 mg source of ^252 Cf moderated by water provides a source of 1×10^9 thermal neutrons/cm^2 /sec at a distance of 3 cm (personnel communication Dr. R. Martin). The half-life of ^252 Cf is 2.65 years, thus this provides a simple and reliable source of neutrons for BNCT in locations without suitable nuclear reactors.
This work was performed using sealed ^252 Cf source capsules in a hot cell without transferable radioactive contamination using a double tube arrangement which contained 1.0 ml of A 549 lung cancer cells (maximum cell number 2×10^6 cells/ml and minimum cell number 2×10^3 cells/ml). The cancer cells were exposed to approximately 2×10^8 thermal neutrons per cm^2 per second from 30 mg of ^252 Cf. The flux of neutrons was determined by the irradiation of manganese wire and subsequent analysis of activation. The duration of exposure of cells was 30 sec. 1, 1.5, 2.0 and 4.0 minutes for control groups and boronated compounds. Following radiation exposure, the A 549 lung cancer cells were placed on ice for subculturing and cell survival studies.
All boronated compounds tested worked as agents in boron neutron capture reactions. Cell survival data was calculated from semi-log plots and subjected to a regression analysis to obtain an X coefficient (kill constant) for each compound.

[5] = system: A549 lung cancer cells; experiment: Cellular boron uptake by inductively coupled plasma mass spectroscopy; assay type: cell-based
Description: The measurement of total cellular boron was made using inductively coupled mass spectrometry. Boron concentrations were measured against a calibration curve generated with a series of NIST traceable standards. Yttrium and indium (20 ng/ml) internal standards were employed to correct for drift. Analyte recoveries were monitored by the addition of boron spikes (20 ng/ml) to the samples. Analyte response was corrected accordingly. Finally, a boron standard of 60 ng/ml was utilized to ensure continued calibration. […] The lung cancer cell culture with boron exposed cells was washed by centrifugation twice, and the supernate was removed by suction prior to chemical analysis. […] All the reagents for sample preparation were analytical grade. Concentrated nitric acid (1-2 ml) and 30% hydrogen peroxide was applied to the cells.
The nitric acid-hydrogen peroxide cocktail was allowed 96 hours for cellular digestion in tubes that facilitated the venting of generated gases. Intermittent stirring was also performed on the sample tubes. All contents were transformed to boron-free tubes and the final volume was adjusted with distilled water to a 10 ml total volume for each sample tested.

[6] = system: A549 lung cancer cells; conditions: for level above which all cell growth is suppressed: human, 10080 min
Description: as §1

[7] = system: tumor cells; conditions: cited from earlier work; for ratio of boron in tumor cells compared to normal cells: in vivo
[8] = system: human glioblastoma multiforme (brain) tumors; experiment: Boron biodistribution (tumor, normal brain) in mice bearing human glioblastoma multiforme tumors; assay type: in vivo; conditions: sodium salt
Description: The water soluble sodium salt of the boron containing amino carboxylic compound VIII, was injected into four mice bearing human glioblastoma multiforme (brain) tumors on their hind quarter. One animal was sacrificed after 3 hours, 6 hours, 12 hours, and 24 hours and tissue samples were taken from the tumor, normal brain tissue, blood and muscle. At three hours the tumor contained 52 parts per million of boron and the normal brain contained only 7.6 ppm (a ratio of nearly 7:1). At twelve hours the tumor boron concentration was 37 ppm and the normal brain concentration was 3.7 ppm (a ratio of 10:1).

Compound | BNCT treatment outcome [2] | A549 cell survival (Table 1) ([3]; 1.25 μg B/ml) | A549 cell survival (Table 1) ([3]; 2.5 μg B/ml) | A549 cell survival (Table 1) ([3]; 5.0 μg B/ml) | A549 cell survival (Table 1) ([3]; 10.0 μg B/ml) | A549 cell survival (Table 1) ([3]; 15.0 μg B/ml) | A549 cell survival (Table 1) ([3]; 20.0 μg B/ml) | kill constant (absolute value of X coefficient) [4] | Atoms of ^10 B in cell [5] | other results
2,4-divinyl-nido-o-carboranyldeuteroporphoryin IX [VCDP] |  |  |  |  |  |  |  |  |  | mortality of mice [1]: about 10%
O=BOB(O)OB(O)OB=O [borax] | treatment failure because of the lack of localization of boron within tumor cells |  |  |  |  |  |  |  |  | 
5(4carboranyl-1-butynyl) uridine [CDU-4] |  | 22 | 69 | 0 | 0 | 0 | 0 | 2.87 | 10 × 10^9 atoms ^10 B/cell | level above which all cell growth is suppressed [3]: above 2.5 μg B/ml; cellular uptake (words) [5]: lowest in cellular uptake
2-amino-5-[2-methyl]-1,2-dicarba-closo-dodecacarboran(12)-1-yl] pentane carboxylic acid [LSK 1-38] |  | 50 | 33 | 18 | 2 | 0 | 0 | 2.64 | 96 × 10^9 atoms ^10 B/cell | toxicity ([3]; A549 lung cancer cells): low toxicity; level above which all cell growth is suppressed [3]: above 10 μg B/ml; cellular uptake (words) ([5]; listed as LSK1-38): excellent cellular uptake; cellular uptake (words) ([5]; listed as LSK-138): next highest cellular uptake
5(5carboranyl-1-pentynyl) deoxyuridine [CN-V-264] |  | 10 | 4 | 0 | 0 | 0 | 0 | 2.88 | 50 × 10^9 atoms ^10 B/cell | cellular uptake (words) [5]: lowest in cellular uptake; level above which all cell growth is suppressed [6]: above 2.5 μg B/ml
N[C@@H](Cc1ccc(B(O)O)cc1)C(=O)O [BPA, boronophenylalanine] |  |  |  |  |  |  |  |  |  | deleterious effects ([7]; compared with porphyrin): without the deleterious effects seen, for example, with porphyrin
O=BOB1OB2OB([O-])OB(O1)O2.[Na+] [sodium pentaborate] | treatment failure because of the lack of localization of boron within tumor cells |  |  |  |  |  |  |  |  | 
sodium decahydrodecaborate | failed due to vascular damage caused by high blood levels of boron |  |  |  |  |  |  |  |  | ratio of boron in tumor cells compared to normal cells [7]: high ratios of boron in tumor cells compared to normal cells
O=C(O)c1ccc(B(O)O)cc1 [p-carboxybenzeneboronic acid] | failed due to vascular damage caused by high blood levels of boron |  |  |  |  |  |  |  |  | ratio of boron in tumor cells compared to normal cells [7]: high ratios of boron in tumor cells compared to normal cells
1-Amino-3-[2-(1,7 dicarba-closo-dodecacaboran(12)-1-yl)ethyl]cyclobutanecarboxylic acid [ACBC] |  | 39 | 14 | 8 | 8 | 0 | 0 | 2.71 | 2749 × 10^9 atoms ^10 B/cell | cellular uptake (words) [5]: greatest cellular uptake; also recorded: almost two orders of magnitude greater in uptake than the other compounds tested; also recorded: excellent cellular uptake; toxicity [6]: low toxicity; level above which all cell growth is suppressed [6]: above 10 μg B/ml
1-amino-3-[2-(7-(2-hydroxyethyl)-1,7-dicarba-nido-dodecacaboran(12)-ylethyl]cyclobutanecarboxylic acid [VIII] |  |  |  |  |  |  |  |  |  | normal brain boron concentration ([8]; 3 hours): 7.6 ppm; normal brain boron concentration ([8]; 12 hours): 3.7 ppm; tumor boron concentration ([8]; 3 hours after injection): 52 parts per million; tumor boron concentration ([8]; 12 hours): 37 ppm
